The values that follow are results of earlier work, collected in patent US8445528B2, “Dendrimer conjugates” (priority 2008, dated 2013).

The conditions of the data set: more cytotoxic than IRINOTECAN

SMILES strings stand for the structures.

Take `CC[C@@]1(O)C(=O)OCc2c1cc1n(c2=O)Cc2cc3cc(O)ccc3nc2-1` [SN-38, 10-hydroxycamptothecin]: the “cytotoxicity relative to IRINOTECAN” value is given as 1000 fold.
